ChEMBL document CHEMBL3885861, “Open TG-GATES”

Species: Rattus norvegicus
Assay: Open TG-GATES - Regimen: Single
Assay type: toxicity, organism-based, Sprague-Dawley
Set-up: regimen Single, gender Male, age 6 weeks
Settings: in vivo, po, 10 mg/kg, route gavage, dose level High; for APTT / Bas / Eos / Fbg / Hb / Ht / Lym / MCH / MCHC / MCV / Mono / Neu / PT / Plat / RBC / Ret / WBC: tissue Blood; for KIDNEY_L / KIDNEY_R / KIDNEY_TOTAL: tissue Kidney; for LIVER: tissue Liver; for A/G / ALP / ALT / AST / BUN / CRE / Ca / Cl / DBIL / GLC / IP / K / LDH / Na / PL / RALB / TBIL / TC / TG / TP / gamma-GTP: tissue Plasma

## CN1C(C(=O)Nc2ccccn2)=C(O)c2sc(Cl)cc2S1(=O)=O [LORNOXICAM]
3 h
  TERMINAL_BW: 225.5 g
  APTT: 20.6 s
  Bas: 0.6%
  Eos: 1%
  Fbg: 212.8 mg/dL
  Hb: 13.3 g/dL
  Ht: 40.2%
  Lym: 76%
  MCH: 20.9 pg
  MCHC: 33.3%
  MCV: 63 fL
  Mono: 2.8%
  Neu: 19.2%
  PT: 11.8 s
  Plat: 112.2 x10_4/uL
  RBC: 638.8 x10_4/ul
  Ret: 7.5%
  WBC: 112.4 x10_2/uL
  KIDNEY_L: 1 g
  KIDNEY_R: 1 g
  KIDNEY_TOTAL: 1.9 g
  LIVER: 10.3 g
  A/G: 1.8
  ALP: 965.2 IU/L
  ALT: 42.2 IU/L
  AST: 79.2 IU/L
  BUN: 13.4 mg/dL
  CRE: 0.4 mg/dL
  Ca: 10.7 mg/dL
  Cl: 104.4 meq/L
  DBIL: 0.074 mg/dL
  GLC: 193.6 mg/dL
  IP: 9 mg/dL
  K: 4.1 meq/L
  LDH: 188.8 IU/L
  Na: 142.2 meq/L
  PL: 139.2 mg/dL
  RALB: 3.5 g/dL
  TBIL: 0.1 mg/dL
  TC: 76.8 mg/dL
  TG: 38.2 mg/dL
  TP: 5.5 g/dL
  gamma-GTP: 0.6 IU/L
6 h
  TERMINAL_BW: 223.7 g
  APTT: 19.5 s
  Bas: 0.6%
  Eos: 0.8%
  Fbg: 229.2 mg/dL
  Hb: 13.2 g/dL
  Ht: 39.3%
  Lym: 76.8%
  MCH: 20.5 pg
  MCHC: 33.6%
  MCV: 60.9 fL
  Mono: 2.8%
  Neu: 18.6%
  PT: 12.1 s
  Plat: 129.2 x10_4/uL
  RBC: 644.8 x10_4/ul
  Ret: 6.7%
  WBC: 96.3 x10_2/uL
  KIDNEY_L: 1 g
  KIDNEY_R: 1 g
  KIDNEY_TOTAL: 2 g
  LIVER: 9.6 g
  A/G: 1.6
  ALP: 989.2 IU/L
  ALT: 46.8 IU/L
  AST: 78.6 IU/L
  BUN: 12.8 mg/dL
  CRE: 0.3 mg/dL
  Ca: 10.5 mg/dL
  Cl: 104.8 meq/L
  DBIL: 0.072 mg/dL
  GLC: 196.2 mg/dL
  IP: 8.6 mg/dL
  K: 3.9 meq/L
  LDH: 219 IU/L
  Na: 141.8 meq/L
  PL: 137 mg/dL
  RALB: 3.5 g/dL
  TBIL: 0.1 mg/dL
  TC: 75.8 mg/dL
  TG: 56.4 mg/dL
  TP: 5.6 g/dL
  gamma-GTP: 1 IU/L
9 h
  TERMINAL_BW: 221.8 g
  APTT: 18.9 s
  Bas: 0.4%
  Eos: 0.8%
  Fbg: 215.6 mg/dL
  Hb: 13.2 g/dL
  Ht: 39.2%
  Lym: 63.6%
  MCH: 21.1 pg
  MCHC: 33.7%
  MCV: 62.6 fL
  Mono: 4.2%
  Neu: 30.6%
  PT: 12.5 s
  Plat: 113.4 x10_4/uL
  RBC: 627.4 x10_4/ul
  Ret: 7%
  WBC: 97.9 x10_2/uL
  KIDNEY_L: 1 g
  KIDNEY_R: 1 g
  KIDNEY_TOTAL: 2 g
  LIVER: 9.3 g
  A/G: 1.7
  ALP: 755.2 IU/L
  ALT: 35.6 IU/L
  AST: 69.8 IU/L
  BUN: 13.8 mg/dL
  CRE: 0.3 mg/dL
  Ca: 10.5 mg/dL
  Cl: 103.6 meq/L
  DBIL: 0.08 mg/dL
  GLC: 188 mg/dL
  IP: 9.1 mg/dL
  K: 4.1 meq/L
  LDH: 195.6 IU/L
  Na: 141.4 meq/L
  PL: 130.8 mg/dL
  RALB: 3.3 g/dL
  TBIL: 0.1 mg/dL
  TC: 67.6 mg/dL
  TG: 59.2 mg/dL
  TP: 5.3 g/dL
  gamma-GTP: 1.2 IU/L
24 h
  TERMINAL_BW: 236.6 g
  APTT: 21.2 s
  Bas: 0.2%
  Eos: 0.4%
  Fbg: 261 mg/dL
  Hb: 12.8 g/dL
  Ht: 38.5%
  Lym: 54%
  MCH: 20.9 pg
  MCHC: 33.2%
  MCV: 63.1 fL
  Mono: 4%
  Neu: 39.6%
  PT: 12 s
  Plat: 119.9 x10_4/uL
  RBC: 610.2 x10_4/ul
  Ret: 6.5%
  WBC: 162.1 x10_2/uL
  KIDNEY_L: 1.1 g
  KIDNEY_R: 1.1 g
  KIDNEY_TOTAL: 2.2 g
  LIVER: 11.6 g
  A/G: 1.5
  ALP: 949.2 IU/L
  ALT: 38.6 IU/L
  AST: 69.8 IU/L
  BUN: 13.4 mg/dL
  CRE: 0.4 mg/dL
  Ca: 10.4 mg/dL
  Cl: 105 meq/L
  DBIL: 0.1 mg/dL
  GLC: 203.6 mg/dL
  IP: 7.6 mg/dL
  K: 4.1 meq/L
  LDH: 214.2 IU/L
  Na: 141.4 meq/L
  PL: 148.2 mg/dL
  RALB: 3.1 g/dL
  TBIL: 0.2 mg/dL
  TC: 74.6 mg/dL
  TG: 108.8 mg/dL
  TP: 5.1 g/dL
  gamma-GTP: 1 IU/L
